In PubChem BioAssay (NCI):
Where “and” joins values, the source holds several entries; their conditions need not be identical. Equal values may be shown once.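 Method: 48-hour compound exposure of cells in 96-well plates, five concentrations, linear interpolation of endpoints. The concentration for 50% growth inhibition is given as GI50. TGI: total growth inhibition.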 Where a SMILES comes first, the peptide text is derived from it. [ ]: non-standard residue; d: D form. The star is where a group is joined. NMeF = CN[C@@H](Cc1ccccc1)C(=O)O; NMeV = CN[C@H](C(=O)O)C(C)C; Boc = CC(C)(C)OC(=O)*; OBn = c1ccc(CO*)cc1

Experiments:
Experiment in all cases: NCI-60 cell line screen, 48 h
DMS 114 small cell lung = system: DMS 114 small cell lung
OVCAR-8 ovarian = system: OVCAR-8 ovarian
HOP-62 NSCLC = system: HOP-62 NSCLC
DMS 273 small cell lung = system: DMS 273 small cell lung
SK-OV-3 ovarian = system: SK-OV-3 ovarian
CAKI-1 renal = system: CAKI-1 renal
EKVX NSCLC = system: EKVX NSCLC
MOLT-4 leukemia = system: MOLT-4 leukemia
SNB-75 CNS = system: SNB-75 CNS
PC-3 prostate = system: PC-3 prostate

SMILES | TGI (DMS 114 small cell lung) [µM] | TGI (OVCAR-8 ovarian) [µM] | TGI (HOP-62 NSCLC) [µM] | TGI (DMS 273 small cell lung) [µM] | TGI (SK-OV-3 ovarian) | TGI (CAKI-1 renal) [µM] | TGI (EKVX NSCLC) [µM] | TGI (MOLT-4 leukemia) [µM] | TGI (SNB-75 CNS) | TGI (PC-3 prostate) | GI50 (SNB-75 CNS) | GI50 (DMS 114 small cell lung) [µM] | GI50 (OVCAR-8 ovarian) [µM] | GI50 (HOP-62 NSCLC) [µM] | GI50 (DMS 273 small cell lung) [µM] | GI50 (SK-OV-3 ovarian) [µM] | GI50 (CAKI-1 renal) [µM] | GI50 (EKVX NSCLC) [µM] | GI50 (MOLT-4 leukemia) [µM]
CCCCCCCCCCCCCCCCCC(=O)OCC(C[As](=O)(O)O)OC(=O)CCCCCCCCCCCCCCCCC (stereo not given) | 34.3 | > 100 | 85.2 | > 100 | 50 µM | > 100 | > 100 | > 100 | 81.6 µM |  |  |  |  |  |  |  |  |  | 
COC1=C2C[C@@H](C)C[C@@H](OC)[C@@H](O)[C@H](C)/C=C(\C)[C@@H](OC(N)=O)[C@H](OC)/C=C\C=C(/C)C(=O)NC(=CC1=O)C2=O | 2.14 |  |  | 2.05 | 37.5 µM and 18 µM and 8.19 µM |  |  |  | 18.6 µM and 19.2 µM and 3.97 µM | 8.01 µM and 5.58 µM and 14.9 µM | 7.93 µM and 4.68 µM and 1.12 µM |  |  |  |  |  |  |  | 
COc1ccc(C(=O)CC(=O)C(=O)Nc2ccc(C)c(C)c2)cc1 | > 58.5 | > 100 | > 100 | > 100 | > 100 µM | > 100 | > 100 | > 100 | 94.6 µM |  |  |  |  |  |  |  |  |  | 
COc1ccccc1C(N)c1ccccc1 (stereo not given) | > 100 | > 100 | > 100 | > 100 | > 100 µM |  | > 100 | > 100 | > 100 µM |  |  |  |  |  |  |  |  |  | 
CN(C)C1=NC2=S(SC(Nc3ccccc3)=N2)S1 (stereo not given) | 42.6 | > 100 | 67.7 | 66 | 90.4 µM | 60.7 | 38.5 | > 100 | 60.6 µM |  |  |  |  |  |  |  |  |  | 
O=C(c1nc2ccc(Cl)cc2[nH]c1=O)C(O)c1ccc2c(c1)OCO2 (stereo not given) | 94.1 | > 100 | > 100 | > 100 | > 100 µM |  | > 100 | > 100 | > 100 µM |  |  |  |  |  |  |  |  |  | 
COC(=O)C1=C(c2ccc3c(c2)OCO3)OC(c2ccc3c(c2)OCO3)C1 (stereo not given) | > 100 | > 100 | > 100 | > 100 | > 100 µM | > 100 | > 100 | > 100 | > 100 µM |  |  |  |  |  |  |  |  |  | 
CCC[CH2][Sn]1([CH2]CCC)[O]CC(CN2CCOCC2)[O]1 (stereo not given) | 4.35 | 10.8 | 20.4 | 12 | 25.8 µM | 6.51 | 11.9 | 7.88 | 7.05 µM |  | 2.16 µM | 1.36 | 3.35 | 8.8 | 3.15 | 12.3 | 1.36 | 2.18 | 2.22
CCC1CC(C)=CCN1S(=O)(=O)c1ccc(C)cc1 (stereo not given) | 53.7 | > 100 | 84.6 | 67.9 | > 100 µM | > 100 | > 100 | 83.6 | 50.6 µM |  |  |  |  |  |  |  |  |  | 
COc1ccc(NC(=O)CC(=O)N2N=C(N(CCC#N)c3cccc(C)c3)CC2c2ccccc2)cc1 (stereo not given) |  | > 100 | > 100 | > 100 | > 100 µM | > 100 | > 100 | > 100 | > 100 µM |  |  |  |  |  |  |  |  |  | 
CNC(=O)NC(CCCCNC(=O)OCc1ccccc1)C(=O)OCc1ccccc1 (stereo not given) | 85.4 | > 87.5 | > 100 | > 100 | > 100 µM | > 80.2 | > 100 | 58.7 | 43.9 µM | > 100 µM |  |  |  |  |  |  |  |  | 
CC(C)[C@@H](C(=O)N1CCC[C@H]1C(=O)OCc1ccccc1)N(C)C(=O)[C@H](C(C)C)N(C)C(=O)[C@H](Cc1ccccc1)N(C)C(=O)[C@H](NC(=O)OC(C)(C)C)C(C)C (Boc-[dV][NMeF][NMeV][NMeV]P-OBn) | > 100 | > 100 | > 100 | > 100 | > 100 µM | > 100 | > 100 | > 100 | > 100 µM | > 50 µM | > 100 µM |  |  |  |  |  | > 100 |  | 3.68
COc1ccc(C(=O)C(C(=O)C(=O)NC2C3CC4CC(C3)CC2C4)c2ccc(OC)cc2)cc1 (stereo not given) | > 100 | > 100 | > 100 | > 100 | > 100 µM | > 100 | > 100 | > 100 | > 100 µM |  |  |  |  |  |  |  |  |  | 
COc1cc(Nc2nc3cc(C(F)(F)F)ccc3nc2-c2ccccc2)cc(OC)c1OC | > 100 | > 100 | 94.6 | > 100 | > 100 µM | 0.0575 | > 100 | > 100 | > 100 µM |  |  |  |  |  |  |  |  |  | 
CC1=NC(C(C)C)C(=O)O1 (stereo not given) | 56.2 | > 100 | > 100 | > 100 | > 100 µM | > 100 | > 100 | > 100 | > 100 µM |  |  |  |  |  |  |  |  |  | 
CCOC(=O)NC(=O)c1cn(CCCOC(=O)NCCCCCCNC(=O)OCCCn2cc(C(=O)NC(=O)OCC)c(=O)[nH]c2=O)c(=O)[nH]c1=O | 34.1 | > 100 | > 100 | > 100 | > 100 µM | 35 | > 100 | 90.3 | 45.2 µM |  |  |  |  |  |  |  |  |  | 
O=NN/C(=C1\Nc2ccc([N+](=O)[O-])cc2NC1=O)C(O)c1ccc([N+](=O)[O-])cc1 (stereo not given) | > 100 | > 100 | > 100 | > 100 | > 100 µM | > 100 |  | > 100 | > 100 µM |  |  |  |  |  |  |  |  |  | 
